Assay results as given in patent publication US11406631B2, “Hydrazone derivatives for preventing or treating EBV-related cancers” (Universite de Bretagne Occidentale, priority 2018, dated 2022).

What was measured:
quadruplex RNA F-EBNA1-T = assay: FRET-melting assay; type: binding, Epstein-Barr virus; conditions: for ΔTm, ligand + 3 μM ds26 / ΔTm, ligand + 10 μM ds26 / ΔTm, ligand alone: F-EBNA1-T 0.2 μM, ligand 1.0 μM, K+10 buffer; for ΔTm, ligand + 3 μM ds26: competitor DNA ds26 3 μM (15 eq); for ΔTm, ligand + 10 μM ds26: competitor DNA ds26 10 μM (50 eq); for ΔTm, ligand alone: no competitor; for affinity for the G-quadruplex structure of EBNA1 (in words, FRET-melting data): conclusion from Table 2
Description: The FRET-melting assay is based on thermal denaturation of G4-ARN monitored by fluorescence due to the phenomenon of Förster Resonance Energy Transfer (FRET). This method uses quadruplex-forming RNA sequence dual-labeled with two different fluorophores: a donor (fluorescein, or FAM) and an acceptor (tetramethylrhodamine, or TAMRA). When RNA is folded into G-quadruplex (G4) structure, fluorescence of the donor fluorophore is weak due to strong energy transfer (FRET) to the neighboring acceptor fluorophore. Upon thermal denaturation, the quadruplex unfolds and the fluorophores are separated, leading to decrease of the FRET effect and increase of the fluorescence of the donor (see FIG. 2). By following the fluorescence of the donor as a function of temperature, a melting curve of the G-quadruplex RNA can be obtained, which allows determining the temperature of denaturation at which 50% of the quadruples is unfolded (T1, FIG. 3).
The FRET-melting assay allows assessing the affinity of small molecules (ligands) for the G4-RNA. The addition of a G4-ligand stabilizes the G-quadruplex structure and increases the denaturation temperature. The temperature of denaturation in the presence of ligands (T2) can be compared with that obtained in the absence of ligands (T1). The value of ΔTm (ΔTm=T2−T1) represents a measure of the affinity of the compounds of the invention (ligand). Generally, values of ΔTm>20° C. correspond to ligands of high affinity.
The dual-labeled oligoribonucleotide EBNA1 [5′-FAM-r(GGGGCAGGAGCAGGAGGA)-TAMRA-3′] (SEQ ID no 2) purified by reversed-phase HPLC was purchased from Eurogentec. The donor fluorophore was 6-carboxyfluorescein (FAM) and the acceptor fluorophore was 6-carboxytetramethylrhodamine (TAMRA).
Stock solutions of the ligands (2 mM in DMSO) were used for FRET-melting assay, unless otherwise stated, and were stored at −20° C. FRET-melting measurements are performed on 7900HT Fast Real-Time PCR System (Applied Biosystems) with Microamp Fast optical 96-well reaction plate (Applied Biosystems).
Preparation of Oligonucleotides For FRET-melting assay, oligoribonucleotide F-EBNA1-T was dissolved in K^+10 buffer (10 mM lithium cacodylate buffer, pH 7.3, supplemented with 10 mM KCl and 90 mM LiCl).
Prior to use, all oligonucleotides were pre-treated by heating at 95° C. for 5 min, then rapidly cooled to 4° C. to favor the intramolecular folding by kinetic trapping. Duplex-DNA ds26 (5′CAA-TCG-GAT-CGA-ATT-CGA-TCC-GAT-TG-3′) (SEQ ID no 3) was prepared by heating this self-complementary strand at 90° C. for 5 min in K^+10 buffer followed by a slow cooling over 6 h.
FRET-melting assay is performed in 96-well plates on real time PCR apparatus 7900HT Fast Real-Time PCR System using the heating ramp as follow: 5 min at 25° C., then increase of 0.5° C. every minute until 95° C. Each experimental condition was tested in duplicated in a volume of 25 μL for each sample. The 96-well plates (Applied Biosystems) were prepared by aliquoting the annealed RNA (24 μL of 0.21 μM solution in K^+10 buffer) into each well, followed by 1 μL of ligand solution (25 μM in K^+10 buffer). For competition experiments, duplex competitors were added to 200 nM quadruplex sequences at final concentrations of 3.0 μM (15 eq) and 10.0 μM (50 eq), with a total reaction volume of 25 μL, with the labeled oligoribonucleotide (0.2 μM) and the ligand (1.0 μM). Measurements were made with excitation at 492 nm and detection at 516 nm. The change in the melting temperature in the presence of 1.0 μM putative ligand, ΔTm (1.0 μM), was calculated from at least two experiments by subtraction of the blank from the averaged melting temperature of each compound (1.0 μM).
The results are shown in FIG. 4 and in Table 2 below (higher ΔTm values indicate higher affinity of the compounds to G4-RNA structure of EBNA1).

[1] = test system: GAr-based inhibition of protein expression; assay: SDS-PAGE and western blot of 235GAr-OVA and OVA in transfected H1299 cells; type: cell-based
Description: The aim of these experiments is to assess the effect of the inventive compounds on the GAr-based inhibition of protein expression. For this purpose, H1299 cells were transfected by plasmids allowing expression of either EBNA1 or, as a control EBNA1ΔGAr and then treated, or not by various concentrations of the indicated compounds. […] Compounds able to interfere with GAr-based inhibition of translation will increase the steady state level of EBNA1, whereas a having no effect on EBNA1ΔGAr.
The ratio of the quantity of OVA or GAr-OVA relatively to GAPDH (the loading control) are indicated below the gel.

Mutu-1 cells = assay: Cell viability (MTT assay); type: cell-based; design: dose or concentration left out as unconfirmed; conditions: concentration range where they increase EBNA1 expression; preliminary results
Experimental: Stars indicate significant results (the higher the number of stars, the more significant).
Toxicity of various concentration of G4 ligands on Mutu-1 cells was assessed using the classical MTT assay. The results obtained with various concentrations of compounds 2a and 11a were compared to the result obtained with cells treated by DMSO (compound vehicle).

Structure (SMILES)	ΔTm, ligand + 3 μM ds26 (quadruplex RNA F-EBNA1-T) [°C]	ΔTm, ligand + 10 μM ds26 (quadruplex RNA F-EBNA1-T) [°C]	ΔTm, ligand alone (quadruplex RNA F-EBNA1-T) [°C]	affinity for the G-quadruplex structure of EBNA1 (in words, FRET-melting data) (quadruplex RNA F-EBNA1-T)	OVA expression ([1]; control without GAr)	steady-state level of 235GAr-OVA ([1]; dose-dependent, relative to GAPDH)	toxicity on Mutu-1 cells (Mutu-1 cells)
C[n+]1ccc(C=NNC(=O)c2cccc(C(=O)NN=Cc3cc[n+](C)c4ccccc34)n2)c2ccccc21.[I-].[I-] [Compound 2a, N′^2, N′^6-Bis[(1-methylquinolinium-4-yl)methylene]pyridine-2,6-dicarbohydrazide iodide]	16.1 ± 0.4	14.2 ± 0.7	16.4 ± 0.4	particularly high affinity	no significant effect	significant increase	not significantly toxic
C[n+]1ccc(C=NNC(=O)c2ccc3ccc4ccc(C(=O)NN=Cc5cc[n+](C)c6ccccc56)nc4c3n2)c2ccccc21.[I-].[I-] [Compound 11a, N′^2,N′^9-Bis[(1-methylquinolinium-4-yl)methylene]-1,10-phenanthroline-2,9-dicarbohydrazide iodide]	21.1 ± 0.6	19.3 ± 1.1	21.5 ± 0.2	particularly high affinity	–	–	not significantly toxic
